System: LRP/MVP promoter
Assay: Inducibility of LRP/MVP promoter by cytostatics (CAT expression)
Format: cell-based, human
Details: for inducibility of the human LRP/MVP gene promoter by therapy-relevant factors: general statement, no details given

Compound | inducibility of the human LRP/MVP gene promoter by therapy-relevant factors | induction of LRP/MVP-promoter-mediated CAT expression (24 h after cytostatic administration, FIG. 2)
N.N.[Cl][Pt][Cl] [cisplatin] | inductors | 
O=c1[nH]cc(F)c(=O)[nH]1 [5-fluoruracil] | inductors | induced
COc1cccc2c1C(=O)c1c(O)c3c(c(O)c1C2=O)C[C@@](O)(C(=O)CO)C[C@@H]3O[C@H]1C[C@H](N)[C@H](O)[C@H](C)O1 [adriamycin] | inductors | 
CC[C@]1(O)C[C@H]2CN(CCc3c([nH]c4ccccc34)[C@@](C(=O)OC)(c3cc4c(cc3OC)N(C=O)[C@H]3[C@@](O)(C(=O)OC)[C@H](OC(C)=O)[C@]5(CC)C=CCN6CC[C@]43[C@@H]65)C2)C1 [vincristin] | inductors | 

Reference: patent publication US7297535B2, “Use of the human LRP/MVP promotor for a vector that can be induced by therapy” (Max-Delbrück-Centrum Für Molekulare Medizin, priority 2000, dated 2007)
